Structures are written as SMILES. Bounds are passed on as bounds.

This experiment deals with RMG-I TPO-Luc reporter, SteadyGlo luminescence, 24 h. Put plainly: inhibitors of PAX8-driven TPO luciferase reporter, dose response, RMG-I cells, cherry-pick (AID 687027;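 note: potency for lowering reporter light which is read as Pax8 inhibition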). (In a reporter assay the amount or activity of a reporter protein is the signal.)

For `COC(C(=O)C(O)C(C)O)C1Cc2cc3cc(OC4CC(OC5CC(O)C(O)C(C)O5)C(O)C(C)O4)c(C)c(O)c3c(O)c2C(=O)C1OC1CC(OC2CC(OC3CC(O)C(OC)C(C)O3)C(O)C(C)O2)C(O)C(C)O1` (stereo unspecified), the AC50 (usually the concentration giving half of the maximal activity seen) is less than 260 nM.

The values above are taken from PubChem BioAssay AID687027 (Broad Institute, 2013).
